Experimental findings from PMC11846820, “Inhibition of DYRK1B BY C81 impedes inflammatory processes in leukocytes by reducing STAT3 activity” (Cellular and Molecular Life Sciences: CMLS, 2025) are described below.

Each structure is given as a SMILES string. pEC50: −log10 of the molar value.

Common to all, as to experiment: NanoBRET target engagement (tracer displacement) in intact HEK293T cells
What all share (type): cell-based
In general terms: In BRET a luciferase serves as donor, and the signal depends on an acceptor being close.

In one experiment the target is T1, CLK1 (Homo sapiens, UniProt P49759).
T1 construct: Full-length, terminal NanoLuc fusion
T1 sequence (P49759 whole entry, the tested form may be a part): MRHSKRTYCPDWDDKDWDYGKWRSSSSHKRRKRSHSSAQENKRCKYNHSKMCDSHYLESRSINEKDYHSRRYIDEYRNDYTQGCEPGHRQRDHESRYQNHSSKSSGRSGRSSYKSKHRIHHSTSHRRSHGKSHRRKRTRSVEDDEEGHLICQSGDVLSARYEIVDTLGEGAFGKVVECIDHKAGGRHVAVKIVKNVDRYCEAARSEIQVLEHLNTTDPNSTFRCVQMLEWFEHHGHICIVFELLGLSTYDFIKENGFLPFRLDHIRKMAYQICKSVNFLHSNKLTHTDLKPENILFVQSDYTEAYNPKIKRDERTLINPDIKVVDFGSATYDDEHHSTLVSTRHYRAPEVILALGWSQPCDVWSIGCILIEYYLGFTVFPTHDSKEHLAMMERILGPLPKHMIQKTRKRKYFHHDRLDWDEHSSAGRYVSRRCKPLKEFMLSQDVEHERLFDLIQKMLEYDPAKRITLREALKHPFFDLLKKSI

The next experiment has as its target T2, DYRK1B (Homo sapiens, UniProt Q9Y463).
T2 construct: Full-length, terminal NanoLuc fusion

For another experiment, the target named is T3, DYRK2 (Homo sapiens, UniProt Q92630).
T3 construct: Full-length, terminal NanoLuc fusion
T3 sequence (Q92630 1-601): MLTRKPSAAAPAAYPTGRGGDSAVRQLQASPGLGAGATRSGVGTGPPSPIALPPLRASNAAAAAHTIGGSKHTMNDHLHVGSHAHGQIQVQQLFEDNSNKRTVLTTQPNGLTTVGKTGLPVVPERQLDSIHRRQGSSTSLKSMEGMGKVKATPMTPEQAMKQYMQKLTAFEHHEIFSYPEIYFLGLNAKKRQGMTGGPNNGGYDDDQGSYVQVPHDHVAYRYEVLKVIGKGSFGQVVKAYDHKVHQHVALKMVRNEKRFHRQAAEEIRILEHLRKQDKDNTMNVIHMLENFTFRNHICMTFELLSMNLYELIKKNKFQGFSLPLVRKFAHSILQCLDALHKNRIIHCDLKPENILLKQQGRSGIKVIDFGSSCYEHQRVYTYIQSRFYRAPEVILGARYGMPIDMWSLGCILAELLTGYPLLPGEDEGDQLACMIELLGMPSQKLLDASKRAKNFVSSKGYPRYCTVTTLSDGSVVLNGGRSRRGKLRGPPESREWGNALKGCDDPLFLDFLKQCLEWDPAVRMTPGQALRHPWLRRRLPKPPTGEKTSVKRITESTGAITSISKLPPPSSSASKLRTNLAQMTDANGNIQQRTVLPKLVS

In the next experiment the target is T4, CLK2 (Homo sapiens, UniProt P49760).
T4 construct: Full-length, terminal NanoLuc fusion
T4 sequence (P49760 whole entry, the tested form may be a part): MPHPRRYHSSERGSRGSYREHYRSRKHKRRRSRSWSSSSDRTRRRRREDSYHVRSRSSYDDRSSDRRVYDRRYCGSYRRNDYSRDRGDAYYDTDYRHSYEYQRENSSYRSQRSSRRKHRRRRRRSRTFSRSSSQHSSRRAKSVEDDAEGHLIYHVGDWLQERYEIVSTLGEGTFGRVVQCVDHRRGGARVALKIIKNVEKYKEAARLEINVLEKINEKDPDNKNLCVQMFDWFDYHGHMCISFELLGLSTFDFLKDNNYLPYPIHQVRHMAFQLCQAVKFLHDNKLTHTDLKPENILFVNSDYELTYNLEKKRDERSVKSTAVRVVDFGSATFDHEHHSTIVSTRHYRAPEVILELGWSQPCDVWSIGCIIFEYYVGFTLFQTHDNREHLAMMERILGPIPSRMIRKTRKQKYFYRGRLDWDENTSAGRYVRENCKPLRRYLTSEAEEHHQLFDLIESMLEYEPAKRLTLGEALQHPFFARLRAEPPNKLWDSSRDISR

Another experiment concerns the target T5, CLK4 (Homo sapiens, UniProt Q9HAZ1).
T5 construct: Full-length, terminal NanoLuc fusion

Another experiment has as its target T6, DYRK1A (Homo sapiens, UniProt Q13627).
T6 construct: Full-length, terminal NanoLuc fusion

T2 sequence (Q9Y463 whole entry, the tested form may be a part): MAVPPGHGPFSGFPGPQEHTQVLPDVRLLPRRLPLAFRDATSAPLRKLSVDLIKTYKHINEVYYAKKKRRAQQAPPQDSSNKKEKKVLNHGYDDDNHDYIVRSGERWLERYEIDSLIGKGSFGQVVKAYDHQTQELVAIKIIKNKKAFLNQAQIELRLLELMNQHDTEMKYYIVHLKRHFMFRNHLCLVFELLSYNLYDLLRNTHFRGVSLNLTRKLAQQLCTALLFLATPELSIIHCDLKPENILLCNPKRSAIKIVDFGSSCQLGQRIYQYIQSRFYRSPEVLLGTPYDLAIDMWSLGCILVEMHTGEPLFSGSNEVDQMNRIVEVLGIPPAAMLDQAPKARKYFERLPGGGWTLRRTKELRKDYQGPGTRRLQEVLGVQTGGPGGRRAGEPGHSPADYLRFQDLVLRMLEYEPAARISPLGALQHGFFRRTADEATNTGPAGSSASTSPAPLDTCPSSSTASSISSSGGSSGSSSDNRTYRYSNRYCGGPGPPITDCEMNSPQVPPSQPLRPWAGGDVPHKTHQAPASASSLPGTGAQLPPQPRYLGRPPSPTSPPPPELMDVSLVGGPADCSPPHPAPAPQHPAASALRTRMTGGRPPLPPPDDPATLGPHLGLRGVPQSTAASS
T5 sequence (Q9HAZ1 whole entry, the tested form may be a part): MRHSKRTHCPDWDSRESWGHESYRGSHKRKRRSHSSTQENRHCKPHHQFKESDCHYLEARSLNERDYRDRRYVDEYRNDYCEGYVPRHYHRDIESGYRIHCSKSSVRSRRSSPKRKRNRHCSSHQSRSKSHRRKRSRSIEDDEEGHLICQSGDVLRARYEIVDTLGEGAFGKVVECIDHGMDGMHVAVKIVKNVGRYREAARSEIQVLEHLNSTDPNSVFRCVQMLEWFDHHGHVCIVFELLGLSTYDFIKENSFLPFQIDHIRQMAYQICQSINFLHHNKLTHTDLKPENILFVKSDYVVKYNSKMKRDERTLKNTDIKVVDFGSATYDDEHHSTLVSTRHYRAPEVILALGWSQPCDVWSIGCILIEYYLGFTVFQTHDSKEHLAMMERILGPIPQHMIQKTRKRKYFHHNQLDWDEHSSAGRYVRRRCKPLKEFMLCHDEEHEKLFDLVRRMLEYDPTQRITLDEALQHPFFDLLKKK

Broadly, the pEC50 is the EC50 on a negative log10 scale, so that one unit is a factor of ten. Low readings indicate a large EC50, high ones a small EC50. Regarding `Cc1nccc(-c2cn(Cc3ccccc3)c3cnccc23)n1` [AZ-DYRK1B-33], the pEC50 at CLK1 is 6.52; on DYRK1B, 6.27; on DYRK2, 5.47; on CLK2 it was 5.30; at CLK4, 6.92; at DYRK1A, 5.42.
